Source: publication PMC8119466, “A screen of FDA-approved drugs identifies inhibitors of protein tyrosine phosphatase 4A3 (PTP4A3 or PRL-3)” (Scientific Reports, 2021)
Where a name gives a salt, the structure may show the parent alone. Read-outs that look alike come from different tables or passages of the source.

Key:
Type in all cases: biochemical
[1] = biological target: T1, recombinant PRL-3 (Homo sapiens, UniProt O75365); assay: In vitro phosphatase assay (DiFMUP hydrolysis), PRL-3; further: test concentration or dose not given here
T1 construct: 6xHis (N, cleaved yes); made in house; host or cells: E. coli One Shot BL21 Star

[2] = biological target: T2, recombinant PRL-1 (Homo sapiens, UniProt Q93096); assay: In vitro phosphatase assay (DiFMUP hydrolysis), PRL-1; further: test concentration or dose not given here
T2 construct: 6xHis (N, cleaved yes); made in house; host or cells: E. coli One Shot BL21 Star
T2 sequence (Q93096 1-173): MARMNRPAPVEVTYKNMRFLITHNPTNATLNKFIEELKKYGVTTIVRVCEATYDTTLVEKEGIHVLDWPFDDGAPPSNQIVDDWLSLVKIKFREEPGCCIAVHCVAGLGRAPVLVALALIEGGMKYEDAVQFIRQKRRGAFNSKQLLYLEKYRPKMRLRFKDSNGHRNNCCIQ

[3] = biological target: T3, recombinant PRL-2 (Homo sapiens, UniProt Q12974); assay: In vitro phosphatase assay (DiFMUP hydrolysis), PRL-2;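 further: PRL-2 activity read as DiFMUP hydrolysis after 20 min at room temperature with drug, enzyme first pre-reduced at 4 °C for 20 min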
T3 construct: 6xHis (N, cleaved yes); made in house; host or cells: E. coli One Shot BL21 Star
T3 sequence (Q12974 1-167): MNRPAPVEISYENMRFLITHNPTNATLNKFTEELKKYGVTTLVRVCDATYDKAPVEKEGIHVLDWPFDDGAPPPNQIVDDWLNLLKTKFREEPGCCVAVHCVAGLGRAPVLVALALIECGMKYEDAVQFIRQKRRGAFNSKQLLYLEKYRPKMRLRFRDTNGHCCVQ

[4] = FDA-approved drug screen, compared to DMSO
[5] = FDA-approved drug screen, activity compared to DMSO

T1 sequence (O75365 whole entry): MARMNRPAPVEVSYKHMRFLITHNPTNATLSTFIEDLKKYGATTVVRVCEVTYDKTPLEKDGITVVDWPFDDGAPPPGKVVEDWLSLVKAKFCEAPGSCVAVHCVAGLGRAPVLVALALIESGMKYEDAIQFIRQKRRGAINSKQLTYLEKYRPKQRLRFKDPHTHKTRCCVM

Row | Compound | % Phosphatase Activity (compared to DMSO) PRL-3 [1, 4] [%] | % Phosphatase Activity (compared to DMSO) PRL-1 [2, 4] [%] | % Phosphatase Activity (compared to DMSO) PRL-2 [3, 4] [%] | further results
1 | CNC(=O)c1ccc(N2C(=S)N(c3ccc(C#N)c(C(F)(F)F)c3)C(=O)C2(C)C)cc1F [Enzalutamide (MDV3100)] | 71 | 90 | 89 | 
2 | CN(C)CCc1c[nH]c2ccc(Cn3cncn3)cc12 [Rizatriptan Benzoate] | 90 | 98 | 103 | 
3 | Cc1ccc(Cl)c(Nc2ccccc2C(=O)O)c1Cl [Meclofenamate Sodium] | 81 | 99 | 104 | 
4 | Nc1ccn([C@@H]2O[C@H](CO)[C@@H](O)[C@@H]2O)c(=O)n1 [Cytarabine] | 91 | 104 | 86 | 
5 | COc1cc(O)c(C(=O)c2ccccc2)cc1S(=O)(=O)O [Sulisobenzone] |  |  |  | % Phosphatase Activity (compared to DMSO) PRL-3 [1, 5]: 81%; % Phosphatase Activity (compared to DMSO) PRL-1 [2, 5]: 91%; % Phosphatase Activity (compared to DMSO) PRL-2 [3, 5]: 95%
6 | COc1cc2nc(N(C)CCCNC(=O)C3CCCO3)nc(N)c2cc1OC (stereo not drawn) [Alfuzosin HCl] | 290 | 590 | 536 | 
7 | COC(=O)N[C@H](C(=O)N[C@@H](Cc1ccccc1)[C@@H](O)CN(Cc1ccc(-c2ccccn2)cc1)NC(=O)[C@@H](NC(=O)OC)C(C)(C)C)C(C)(C)C.O=S(=O)(O)O [Atazanavir Sulfate] | 83 | 95 | 83 | 
8 | COc1ccccc1OCC(O)CO (stereo not drawn) [Guaifenesin] | 100 | 102 | 92 | 
9 | Cc1nc(Nc2ncc(C(=O)Nc3c(C)cccc3Cl)s2)cc(N2CCN(CCO)CC2)n1 [Dasatinib Monohydrate] | 98 | 97 | 79 | 
10 | NC(=O)c1ncn([C@@H]2O[C@H](CO)[C@@H](O)[C@H]2O)c1N [Acadesine] | 95 | 91 | 100 | 
11 | Cc1cccc(C)c1OCC(C)N (stereo not drawn) [Mexiletine HCl] |  |  |  | % Phosphatase Activity (compared to DMSO) PRL-3 [1]: 78%; % Phosphatase Activity (compared to DMSO) PRL-1 [2]: 98%; % Phosphatase Activity (compared to DMSO) PRL-2 [3]: 106%
12 | COc1ccc(C(=O)c2ccccc2O)c(O)c1 [2,2′-Dihydroxy-4-methoxybenzophenone] | 79 | 90 | 107 | 
13 | O=C(O)CCCc1ccc(N(CCCl)CCCl)cc1 [Chloroambucil] | 77 | 98 | 103 | 
14 | CC(C)OC(=O)[C@H](C)N[P@](=O)(OC[C@H]1O[C@@H](n2ccc(=O)[nH]c2=O)[C@](C)(F)[C@@H]1O)Oc1ccccc1 [Sofosbuvir (PSI-7977, GS-7977)] |  |  |  | % Phosphatase Activity (compared to DMSO) PRL-3 [1, 5]: 89%; % Phosphatase Activity (compared to DMSO) PRL-1 [2, 5]: 87%; % Phosphatase Activity (compared to DMSO) PRL-2 [3, 5]: 96%
15 | Cl.O=C1OC(CN2CCOCC2)CN1/N=C/c1ccc([N+](=O)[O-])o1 (stereo not drawn) [Furaltadone HCl] | 65 | 74 | 80 | 
16 | CCc1oc2ccccc2c1C(=O)c1cc(Br)c(O)c(Br)c1 [Benzbromarone] | 51 | 63 | 56 | 
17 | CC(C)N(CCC(C(N)=O)(c1ccccc1)c1ccccn1)C(C)C (stereo not drawn) [Disopyramide Phosphate] | 93 | 94 | 107 | 
18 | COc1cc(/C=C/C(=O)N2CCN(CC(=O)N3CCCC3)CC2)cc(OC)c1OC.O=C(O)/C=C\C(=O)O [Cinepazide maleate] | 113 | 112 | 134 | 
19 | CCCc1nn(C)c2c(=O)[nH]c(-c3cc(S(=O)(=O)N4CCN(C)CC4)ccc3OCC)nc12.CS(=O)(=O)O [Sildenafil Mesylate] |  |  |  | % Phosphatase Activity (compared to DMSO) PRL-3 [1, 5]: 94%; % Phosphatase Activity (compared to DMSO) PRL-1 [2, 5]: 94%; % Phosphatase Activity (compared to DMSO) PRL-2 [3, 5]: 79%
20 | CN1CC(=O)N2[C@H](c3ccc4c(c3)OCO4)c3[nH]c4ccccc4c3C[C@@H]2C1=O [Tadalafil] |  |  |  | % Phosphatase Activity (compared to DMSO) PRL-3 [1, 5]: 82%; % Phosphatase Activity (compared to DMSO) PRL-1 [2, 5]: 109%; % Phosphatase Activity (compared to DMSO) PRL-2 [3, 5]: 97%

Row | Compound | % Phosphatase Activity (compared to DMSO) PRL-3 [1, 4] [%] | % Phosphatase Activity (compared to DMSO) PRL-1 [2, 4] [%] | % Phosphatase Activity (compared to DMSO) PRL-2 [3, 4] [%] | further results
21 | CCOC(=O)[C@H](CCc1ccccc1)N[C@H]1CCc2ccccc2N(CC(=O)O)C1=O [Benazepril HCl] | 78 | 91 | 80 | 
22 | O=C(O)c1cccnc1Nc1cccc(C(F)(F)F)c1 [Niflumic acid] | 88 | 109 | 112 | 
23 | CC(=O)NO [Acetohydroxamic acid] | 75 | 91 | 111 | 
24 | COc1ccc2[nH]cc(CCNC(C)=O)c2c1 [Melatonin] | 81 | 125 | 108 | 
25 | CCOC(=O)N[C@@H]1CC[C@@H]2[C@@H](C1)C[C@H]1C(=O)O[C@H](C)[C@H]1[C@H]2/C=C/c1ccc(-c2cccc(F)c2)cn1 [Vorapaxar] |  |  |  | % Phosphatase Activity (compared to DMSO) PRL-3 [1, 5]: 86%; % Phosphatase Activity (compared to DMSO) PRL-1 [2, 5]: 95%; % Phosphatase Activity (compared to DMSO) PRL-2 [3, 5]: 73%
26 | CO[C@@H]1[C@@H](OC(N)=O)[C@@H](O)[C@H](Oc2ccc3c(O)c(NC(=O)c4ccc(O)c(CC=C(C)C)c4)c(=O)oc3c2C)OC1(C)C [Novobiocin Sodium] | 70 | 94 | 87 | 
27 | Cn1cnc2c(F)c(Nc3ccc(Br)cc3Cl)c(C(=O)NOCCO)cc21 [Selumetinib (AZD6244)] | 87 | 92 | 93 | 
28 | COc1ccc(Cl)cc1C(=O)NCCc1ccc(S(=O)(=O)NC(=O)NC2CCCCC2)cc1 [Glyburide] | 77 | 104 | 100 | 
29 | O=C(O[C@H]1C[C@H]2CC[C@@H](C1)[N+]21CCCC1)C(O)(c1ccccc1)c1ccccc1 [Trospium chloride] |  |  |  | % Phosphatase Activity (compared to DMSO) PRL-3 [1, 5]: 83%; % Phosphatase Activity (compared to DMSO) PRL-1 [2, 5]: 109%; % Phosphatase Activity (compared to DMSO) PRL-2 [3, 5]: 109%
30 | CC(=O)OCC(=O)[C@@]1(O)CC[C@H]2[C@@H]3CCC4=CC(=O)CC[C@]4(C)[C@H]3C(=O)C[C@@]21C [Cortisone acetate] | 78 | 98 | 94 | 
31 | CN(C)C(=O)c1cc2cnc(Nc3ccc(N4CCNCC4)cn3)nc2n1C1CCCC1 [LEE011] | 98 | 103 | 84 | 
32 | Cn1cnc([N+](=O)[O-])c1Sc1ncnc2nc[nH]c12 [Azathioprine] |  |  |  | % Phosphatase Activity (compared to DMSO) PRL-3 [1]: 74%; % Phosphatase Activity (compared to DMSO) PRL-1 [2]: 96%; % Phosphatase Activity (compared to DMSO) PRL-2 [3]: 107%
33 | O=S(=O)(O)Oc1ccc(C(c2ccc(OS(=O)(=O)O)cc2)c2ccccn2)cc1 [Sodium Picosulfate] |  |  |  | % Phosphatase Activity (compared to DMSO) PRL-3 [1, 5]: 81%; % Phosphatase Activity (compared to DMSO) PRL-1 [2, 5]: 115%; % Phosphatase Activity (compared to DMSO) PRL-2 [3, 5]: 110%
34 | COC(=O)C1=C(C)NC(C)=C(C(=O)OC(C)(C)CN(C)CCC(c2ccccc2)c2ccccc2)C1c1cccc([N+](=O)[O-])c1.Cl (stereo not drawn) [Lercanidipine (hydrochloride)] | 84 | 87 | 101 | 
35 | O=C1Nc2ccc(Cl)cc2[C@@](C#CC2CC2)(C(F)(F)F)O1 [Efavirenz] | 97 | 87 | 72 | 
36 | NC(=O)N1c2ccccc2CC(=O)c2ccccc21 [Oxcarbazepine] | 89 | 104 | 112 | 
37 | c1ccc(C2CN3CCSC3=N2)cc1 (single isomer, unassigned; (-)) [(-)-Tetramisole] |  |  |  | % Phosphatase Activity (compared to DMSO) PRL-3 [1]: 99%; % Phosphatase Activity (compared to DMSO) PRL-1 [2]: 93%; % Phosphatase Activity (compared to DMSO) PRL-2 [3]: 92%
38 | O=C(c1ccc(F)c(F)c1Nc1ccc(I)cc1F)N1CC(O)([C@@H]2CCCCN2)C1 [Cobimetinib (GDC-0973, RG7420)] | 95 | 95 | 97 | 
39 | Cc1cccc(Nc2ccncc2S(=O)(=O)NC(=O)NC(C)C)c1 [Torsemide] |  |  |  | % Phosphatase Activity (compared to DMSO) PRL-3 [1, 5]: 77%; % Phosphatase Activity (compared to DMSO) PRL-1 [2, 5]: 99%; % Phosphatase Activity (compared to DMSO) PRL-2 [3, 5]: 93%
